Five molecules from patent US20230242585A1, “IMMUNOMODULATORS” (Bristol-Myers Squibb Company, priority 2020, published 2023) can be followed below.

Starred links: 1 amine or outer side, 2 acyl side, 3 side chain; linkers in the order of their positions; H or OH if unused. Positions of bridges follow the written chain, without caps; N, C: chain ends. Non-standard residues stand in square brackets, D forms with d. Residues, ends and D or L forms follow the SMILES beside them. X42 = O=C([C@H](CNC[C@@H](O)C(O)[C@H](O[C@@H]1OC(CO)[C@@H](O)C(O)C1O)C(O)CO)N[*:1])[*:2]; X62 = O=C([C@H](CCNC[C@H](O)[C@H](O)[C@@H](O)[C@@H](O)CO)N[*:1])[*:2]; X35 = O=C([C@H](CNC[C@H](O)[C@H](O)[C@@H](O)[C@@H](O)CO)N[*:1])[*:2]; X34 = O=C([C@H](CCNC[C@H](O)[C@@H](O)[C@@H](O)CO)N[*:1])[*:2]; X33 = O=C([C@H](CNC[C@H](O)[C@@H](O)[C@@H](O)CO)N[*:1])[*:2]; Trp(1-CH2COOH) = N[C@@H](Cc1cn(CC(=O)O)c2ccccc12)C(=O)O; X37 = O=C([C@H](CNCC[C@@H](O)C(O)CO)N[*:1])[*:2]; X38 = O=C([C@H](CCNCC[C@H](O)C(O)CO)N[*:1])[*:2]; Hyp = O=C(O)[C@@H]1C[C@@H](O)CN1; NMeNle = CCCC[C@H](NC)C(=O)O; NMeA = CN[C@@H](C)C(=O)O; Dab = NCC[C@H](N)C(=O)O

In this experiment the target is T1, PD-1/PD-L1 (Homo sapiens, UniProt Q9NZQ7).
T1 construct: TVMV protease site (linker) (C); made in house; host or cells: HEK293T cells
T1 sequence (Q9NZQ7 18-239): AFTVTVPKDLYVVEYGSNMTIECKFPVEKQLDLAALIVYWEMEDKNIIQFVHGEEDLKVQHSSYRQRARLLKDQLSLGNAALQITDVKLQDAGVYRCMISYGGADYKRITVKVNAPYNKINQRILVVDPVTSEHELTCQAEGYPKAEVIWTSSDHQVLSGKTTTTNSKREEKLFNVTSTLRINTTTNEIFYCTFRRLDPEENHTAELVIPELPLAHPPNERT
Nature of the experiment: PD-1/PD-L1 Homogenous Time-Resolved Fluorescence (HTRF) binding assay. Particulars: PD-L1-His 10 nM, PD-1-Ig 20 nM. An excerpt:
The ability of the compounds of formula (I) to bind to PD-L1 was investigated using a PD-1/PD-L1 Homogenous Time-Resolved Fluorescence (HTRF) binding assay.
The interaction of PD-1 and PD-L1 can be assessed using soluble, purified preparations of the extracellular domains of the two proteins. The PD-1 and PD-L1 protein extracellular domains were expressed as fusion proteins with detection tags, for PD-1, the tag was the Fc portion of Immunoglobulin (PD-1-Ig) and for PD-L1 it was the 6 histidine motif (PD-L1-His). All binding studies were performed in an HTRF assay buffer consisting of dPBS supplemented with 0.1% […] bovine serum albumin and 0.05% (v/v) Tween-20. For the h/PD-L1-His binding assay, inhibitors were pre-incubated with PD-L1-His (10 nM final) for 15 m in 4 µl of assay buffer, followed by addition of PD-1-Ig (20 nM final) in 1 µl of assay buffer and further incubation for 15 m. HTRF detection was achieved using europium crypate-labeled anti-Ig (1 nM final) and allophycocyanin (APC) labeled anti-His (20 nM final). Antibodies were diluted in HTRF detection buffer and 5 µl was dispensed on top of the binding reaction. The reaction mixture was allowed to equilibrate for 30 minutes and the resulting signal (665 nm/620 nm ratio) was obtained using an EnVision fluorometer. Additional binding assays were established between the human proteins PD-1-Ig/PD-L2-His (20 & 5 nM, respectively) and CD80-His/PD-L1-Ig (100 & 10 nM, respectively).
Recombinant Proteins: Human PD-1 (25-167) with a C-terminal human Fc domain of immunoglobulin G (Ig) epitope tag [hPD-1 (25-167)-3S-IG] and human PD-L1 (18-239) with a C-terminal His epitope tag [hPD-L1(18-239)-TVMV-His] were expressed in HEK293T cells and purified sequentially by ProteinA affinity chromatography and size exclusion chromatography. Human PD-L2-His and CD80-His was obtained through commercial sources.
Table 1 lists the IC50 values for representative examples of this disclosure measured in the PD-1/PD-L1 Homogenous Time-Resolved Fluorescence (HTRF) binding assay.
As for `CCCC[C@H]1C(=O)N(C)[C@@H](CCCC)C(=O)N[C@@H](CC(C)C)C(=O)N[C@H](C(=O)NCC(N)=O)CSCC(=O)N[C@@H](Cc2ccc(O)cc2)C(=O)N(C)[C@@H](C)C(=O)N[C@@H](CC(N)=O)C(=O)N2CCC[C@H]2C(=O)N[C@@H](CNC[C@H](O)[C@H](O)[C@@H](O)[C@@H](O)CO)C(=O)N[C@@H](CC(C)C)C(=O)N2C[C@H](O)C[C@H]2C(=O)N[C@@H](Cc2c[nH]c3ccccc23)C(=O)N[C@@H](CCNC[C@H](O)[C@H](O)[C@@H](O)[C@@H](O)CO)C(=O)N[C@@H](Cc2cn(CC(=O)O)c3ccccc23)C(=O)N1C` [Example 2023] ({CH2CO}-Y[NMeA]NP[X35]L[Hyp]W[X62][Trp(1-CH2COOH)][NMeNle][NMeNle]LCG-NH2; thioether N-14), the IC50 – broadly, the concentration that gives 50% inhibition – amounted to 6.1 nM.
In turn, `CCCC[C@H]1C(=O)N(C)[C@@H](CCCC)C(=O)N[C@@H](CC(C)C)C(=O)N[C@H](C(=O)NCC(N)=O)CSCC(=O)N[C@@H](Cc2ccc(O)cc2)C(=O)N(C)[C@@H](C)C(=O)N[C@@H](CC(N)=O)C(=O)N2CCC[C@H]2C(=O)N[C@@H](CNC[C@H](O)[C@@H](O)[C@@H](O)CO)C(=O)N[C@@H](CC(C)C)C(=O)N2C[C@H](O)C[C@H]2C(=O)N[C@@H](Cc2c[nH]c3ccccc23)C(=O)N[C@@H](CCNC[C@H](O)[C@@H](O)[C@@H](O)CO)C(=O)N[C@@H](Cc2cn(CC(=O)O)c3ccccc23)C(=O)N1C` [Example 2004] ({CH2CO}-Y[NMeA]NP[X33]L[Hyp]W[X34][Trp(1-CH2COOH)][NMeNle][NMeNle]LCG-NH2; thioether N-14) had an IC50 of 6.7 nM.
Then `CCCC[C@H]1C(=O)N(C)[C@@H](CCCC)C(=O)N[C@@H](CC(C)C)C(=O)N[C@H](C(=O)NCC(N)=O)CSCC(=O)N[C@@H](Cc2ccc(O)cc2)C(=O)N(C)[C@@H](C)C(=O)N[C@@H](CC(N)=O)C(=O)N2CCC[C@H]2C(=O)N[C@@H](CNC[C@H](O)[C@@H](O)[C@@H](O)CO)C(=O)N[C@@H](CC(C)C)C(=O)N2C[C@H](O)C[C@H]2C(=O)N[C@@H](Cc2c[nH]c3ccccc23)C(=O)N[C@@H](CCN)C(=O)N[C@@H](Cc2cn(CC(=O)O)c3ccccc23)C(=O)N1C` [Example 2002] ({CH2CO}-Y[NMeA]NP[X33]L[Hyp]W[Dab][Trp(1-CH2COOH)][NMeNle][NMeNle]LCG-NH2; thioether N-14), with 5 nM; and `CCCC[C@H]1C(=O)N(C)[C@@H](CCCC)C(=O)N[C@@H](CC(C)C)C(=O)N[C@H](C(=O)NCC(N)=O)CSCC(=O)N[C@@H](Cc2ccc(O)cc2)C(=O)N(C)[C@@H](C)C(=O)N[C@@H](CC(N)=O)C(=O)N2CCC[C@H]2C(=O)N[C@@H](CNCC[C@@H](O)C(O)CO)C(=O)N[C@@H](CC(C)C)C(=O)N2C[C@H](O)C[C@H]2C(=O)N[C@@H](Cc2c[nH]c3ccccc23)C(=O)N[C@@H](CCNCC[C@H](O)C(O)CO)C(=O)N[C@@H](Cc2cn(CC(=O)O)c3ccccc23)C(=O)N1C` (some centres unmarked) [Example 2038] ({CH2CO}-Y[NMeA]NP[X37]L[Hyp]W[X38][Trp(1-CH2COOH)][NMeNle][NMeNle]LCG-NH2; thioether N-14), with 6.7 nM; and `CCCC[C@H]1C(=O)N(C)[C@@H](CCCC)C(=O)N[C@@H](CC(C)C)C(=O)N[C@H](C(=O)NCC(N)=O)CSCC(=O)N[C@@H](Cc2ccc(O)cc2)C(=O)N(C)[C@@H](C)C(=O)N[C@@H](CC(N)=O)C(=O)N2CCC[C@H]2C(=O)N[C@@H](CNC[C@@H](O)C(O)[C@H](O[C@@H]2OC(CO)[C@@H](O)C(O)C2O)C(O)CO)C(=O)N[C@@H](CC(C)C)C(=O)N2C[C@H](O)C[C@H]2C(=O)N[C@@H](Cc2c[nH]c3ccccc23)C(=O)N[C@@H](CCN)C(=O)N[C@@H](Cc2cn(CC(=O)O)c3ccccc23)C(=O)N1C` (some centres unmarked) [Example 2039] ({CH2CO}-Y[NMeA]NP[X42]L[Hyp]W[Dab][Trp(1-CH2COOH)][NMeNle][NMeNle]LCG-NH2; thioether N-14), with 5.2 nM.
